Experimental data reported in US9562053B2, “Benzo-fused heterocyclic derivatives useful as agonists of GPR120” (Janssen Pharmaceutica NV, priority 2013, dated 2017).

Biological target: T1, Human GPR120 short form (Homo sapiens, UniProt Q5NUL3)
T1 construct: expressed in transfected cells
T1 sequence (Q5NUL3 1-361): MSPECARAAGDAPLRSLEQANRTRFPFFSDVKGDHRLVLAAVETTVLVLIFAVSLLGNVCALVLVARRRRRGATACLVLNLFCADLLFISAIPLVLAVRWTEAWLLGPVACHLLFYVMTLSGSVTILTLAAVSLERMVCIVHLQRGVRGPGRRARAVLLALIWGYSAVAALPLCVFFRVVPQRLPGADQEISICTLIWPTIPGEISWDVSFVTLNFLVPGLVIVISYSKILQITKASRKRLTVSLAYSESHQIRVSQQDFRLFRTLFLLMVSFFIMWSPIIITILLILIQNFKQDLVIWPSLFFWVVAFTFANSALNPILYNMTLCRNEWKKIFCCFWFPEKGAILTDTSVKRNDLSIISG
Test: Human GPR120 in Calcium Flux Assay, Procedure Calcium A (2500 cells/well)
Type: cell-based
Source text: This in vitro assay serves to assess test compound agonist activity against the short splice variant (SVS with Accession number NM_001195755.1 confirmed by sequencing data) of the GPR120 receptor. The Human Short splice variant #2 (NM_001195755.1) is missing an in-frame coding exon compared to variant 1 (the Human Long splice variant NM_181745.3), resulting in a shorter isoform (GPR120-S) lacking a 16 aa protein segment compared to isoform GPR120-L. The assay platform utilizes HEK-293 cells stably transfected to express the Human GPR120 short form. These cells are first loaded with the Ca^+2 sensitive dye, Fluo-4 NW. Upon stimulation, intracellular released Ca^+2 can bind to the dye and alter its fluorescence intensity. This increase in fluorescence signal, and thus the flux in intracellular [Ca^+2], is detected and quantitated by fluorescence imaging using a FLIPR reader. The effect of the agonist is measured as a function of concentration and used to calculate an EC50 based upon a response curve.
In this procedure 2500 cells/well were employed.
A Human GPR120 clone (Genbank accession number NM_001195755.1) was placed into the pcDNA3.1 mammalian expression vector carrying the neomycin resistance gene. A stable mammalian cell was generated by placing the above clone into a HEK293 background. Clonal cells responding to long chain fatty acids had expression levels of GPR120 confirmed by RT-qPCR. Human HEK-GPR120 cells were cultured in Dulbecco's Modified Eagle's Medium (DMEM)/F12 medium supplemented with 10% fetal bovine serum (FBS), 1% L-Glutamine and 1% penicillin/streptomycin and 0.5 mg/ml G-418. Cells were split 2 times a week to keep the cells in the log-phase growth.
In preparation for the assay, HEK cells stably transfected with Human GPR120 (2.5K cells per well in 25 uL growth medium) were seeded into 384-well plates and then incubated overnight (37° C., 5% CO2). The next day, the media was changed to 20 μl assay buffer and the cell starved for 1 h at 37° C. The dye loading solution (2× dye) was prepared using 10 ml assay buffer, 100 μl of 250 mM probenecid, 1 bottle of Component A, and 20 μl of dye in DMSO. Twenty μl of the 2× dye loading buffer was then added to each well. The plates were incubated at 37° C. for 30 min, then at room temperature for an additional 15 minutes, before performing the assay on FLIPR.
Test compounds were prepared in assay buffer (2 μl of test compound+198 μl assay buffer, final DMSO in assay plate is 0.2%) at the desired concentration, more particularly at 100 μM, 50 μM, 25 μM, 12.5 μM, 6.25 μM, 3.125 μM, 1.562 μM, 0.781 μM, 0.391 μM, 0.195 μM, 0.098 μM, 0.049 μM, 0.024 μM and 0.012 μM.
The assay was performed on a FLIPR plate reader using the following parameters. Baseline was read for 10 seconds at 1 sec intervals. The program was set to transfer 10 μL of ligand from compound plate to cell plate after baseline reading. Aspiration was executed at: 10 μl/sec speed, 4.6 μl height; Dispensing was executed at: 30 μl/sec speed, 45 μl height. After compound addition, each well was read for 300 sec, with measurements collected at 1 sec intervals.
The kinetic data from the FLIPR was based upon a 5 minute window for data collection. The fluorescence of each sample well was used for individual calculations of a normalized RFU value, which was defined as maximum response minus the minimum response. The normalized fluorescence reading (RFU) was calculated as follows: RFU=Fmax−Fmin
The data were fitted to a sigmoidal dose-response curve with a variable Hill slope (<2) using nonlinear regression with GraphPad Prism 5.0 to calculate the EC50 values. The Fitting Equation was: Y=Bottom+(Top−Bottom)/(1+10^((LogEC50−X)*HillSlope)), where X is the log of the concentration and Y is the response.

| SMILES | EC50 [nM] |
| --- | --- |
| Cc1c(CCC(=O)O)ccc(OCc2cc(F)cc3cc(Cc4ccccc4)oc23)c1C [Compound 20, 3-{4-[(2-Benzyl-5-fluoro-1-benzofuran-7-yl)methoxy]-2,3-dimethylphenyl}propanoic acid] | 5290 |
| CCc1cc2cc(F)cc(COc3cc(C)c(CCC(=O)O)cn3)c2o1 [Compound 33, 3-{6-[(2-Ethyl-5-fluoro-1-benzofuran-7-yl)methoxy]-4-methylpyridin-3-yl}propanoic acid] | 1110 |
| Cc1c(CCC(=O)O)ccc(OCc2cc(F)cc3cc(CC4CCCC4)oc23)c1C [Compound 19, 3-(4-{[2-(Cyclopentylmethyl)-5-fluoro-1-benzofuran-7-yl]methoxy}-2,3-dimethylphenyl)propanoic acid] | 1680 |
| Cc1cc2cc(CCCS(C)(=O)=O)cc(COc3ccc(CCC(=O)O)c(C)c3C)c2o1 [Compound 100, 3-[2,3-Dimethyl-4-({2-methyl-5-[3-(methylsulfonyl)propyl]-1-benzofuran-7-yl}methoxy)phenyl]propanoic acid] | > 5000 |
| Cc1nc2c(COc3ccc(CCC(=O)O)c(C)c3C)cc(Cl)cc2o1 [Compound 95, 3-{4-[(6-Chloro-2-methyl-1,3-benzoxazol-4-yl)methoxy]-2,3-dimethylphenyl}propanoic acid] | 134 |
| Cc1cc2c(COc3ccc(CCC(=O)O)c(C)c3C)cc(Cl)cc2s1 [Compound 101, 3-{4-[(6-Chloro-2-methyl-1-benzothiophen-4-yl)methoxy]-2,3-dimethylphenyl}propanoic acid] | 3200 |
| CCc1cc2cc(OC(F)(F)F)cc(COc3cc(CC(C)C)c(CCC(=O)O)cc3F)c2o1 [Compound 53, 3-[4-{[2-Ethyl-5-(trifluoromethoxy)-1-benzofuran-7-yl]methoxy}-5-fluoro-2-(2-methylpropyl)phenyl]propanoic acid] | 673 |
| CCc1cc2cc(C#N)cc(COc3ccc(CCC(=O)O)c(C)c3C)c2o1 [Compound 123, 3-(4-((5-cyano-2-ethylbenzofuran-7-yl)methoxy)-2,3-dimethylphenyl)propanoic acid] | 1410 |
| Cc1cc2cc(C#CCS(C)(=O)=O)cc(COc3ccc(CCC(=O)O)c(C)c3C)c2o1 [Compound 99, 3-[2,3-Dimethyl-4-({2-methyl-5-[3-(methylsulfonyl)prop-1-yn-1-yl]-1-benzofuran-7-yl}methoxy)phenyl]propanoic acid] | > 5000 |
| Cc1c(CCC(=O)O)ccc(OCc2cc(OC(F)(F)F)cc3cc(CCO)oc23)c1C [Compound 94, 3-(4-{[2-(2-Hydroxyethyl)-5-(trifluoromethoxy)-1-benzofuran-7-yl]methoxy}-2,3-dimethylphenyl)propanoic acid] | 274 |
| CCc1cc2cc(OC(F)(F)F)cc(COc3cc(CCC(C)C)c(CCC(=O)O)cc3F)c2o1 [Compound 51, 3-[4-{[2-Ethyl-5-(trifluoromethoxy)-1-benzofuran-7-yl]methoxy}-5-fluoro-2-(3-methylbutyl)phenyl]propanoic acid] | 392 |
| COCCc1cc2cc(F)cc(COc3ccc(CCC(=O)O)c(C)c3C)c2o1 [Compound 10, 3-(4-{[5-Fluoro-2-(2-methoxyethyl)-1-benzofuran-7-yl]methoxy}-2,3-dimethylphenyl)propanoic acid] | 424 |
| CCc1cc2cc3c(c(COc4ccc(CCC(=O)O)c(C)c4C)c2o1)CC(C)(C)O3 [Compound 30, 3-{4-[(6-Ethyl-2,2-dimethyl-2,3-dihydrobenzo[1,2-b:4,5-b′]difuran-4-yl)methoxy]-2,3-dimethylphenyl}propanoic acid] | 759 |
| Cc1c(CCC(=O)O)ccc(OCc2cc(F)cc3cc(CCC(C)C)oc23)c1C [Compound 9, 3-(4-{[5-Fluoro-2-(3-methylbutyl)-1-benzofuran-7-yl]methoxy}-2,3-dimethylphenyl)propanoic acid] | 2750 |
| CCCc1cc2cc(Cl)cc(COc3cc(C)c(CCC(=O)O)cn3)c2o1 [Compound 34, 3-{6-[(5-Chloro-2-propyl-1-benzofuran-7-yl)methoxy]-4-methylpyridin-3-yl}propanoic acid] | 1020 |
| Cc1cc2c(COc3c(F)cc(CCC(=O)O)cc3F)cc(Cl)cc2s1 [Compound 102, 3-{4-[(6-Chloro-2-methyl-1-benzothiophen-4-yl)methoxy]-3,5-difluorophenyl}propanoic acid] | > 5000 |
| Cc1c(CCC(=O)O)ccc(OCc2cc(F)cc3cc(CO)oc23)c1C [Compound 14, 3-(4-{[5-Fluoro-2-(hydroxymethyl)-1-benzofuran-7-yl]methoxy}-2,3-dimethylphenyl)propanoic acid] | 1320 |
| Cc1oc2c(COc3c(Br)cc(CCC(=O)O)c(C)c3C)cc(OC(F)(F)F)cc2c1Br [Compound 120, 3-(5-Bromo-4-{[3-bromo-2-methyl-5-(trifluoromethoxy)-1-benzofuran-7-yl]methoxy}-2,3-dimethylphenyl)propanoic acid] | 1540 |
| C#Cc1cc(COc2ccc(CCC(=O)O)c(C)c2C)c2oc(CCC)cc2c1 [Compound 38, 3-{4-[(5-Ethynyl-2-propyl-1-benzofuran-7-yl)methoxy]-2,3-dimethylphenyl}propanoic acid] | 28 |
| Cc1cc2c(COc3c(F)cc(CCCO)cc3F)cc(Cl)cc2s1 [Compound 103, 3-{4-[(6-Chloro-2-methyl-1-benzothiophen-4-yl)methoxy]-3,5-difluorophenyl}propan-1-ol] | 3000 |
| Cc1cc2cc(Cl)cc(COc3c(F)cc(CCC(=O)O)cc3F)c2s1 [Compound 92, 3-{4-[(5-Chloro-2-methyl-1-benzothiophen-7-yl)methoxy]-3,5-difluorophenyl}propanoic acid] | 417 |
| Cc1c(CCC(=O)O)ccc(OCc2cc(F)cc3cc(CCO)oc23)c1C [Compound 15, 3-(4-{[5-Fluoro-2-(2-hydroxyethyl)-1-benzofuran-7-yl]methoxy}-2,3-dimethylphenyl)propanoic acid] | 4750 |
